Laboratory results published in patent publication US8227508B2, “Dietary and pharmaceutical compositions containing carnosol and/or rosmanol and their uses” (DSM IP Assets B.V., priority 2006, dated 2012).

Legend:
[1] = test system: mouse; experiment: Four Plates Test; type: in vivo; settings: −5 h and −1 h
Source text: The method, which detects anxiolytic activity, follows that described by Aron et al (1971, Neuropharmacology, 10:459-469). Anxiolytics (benzodiazepines) increase the number of punished crossings. Animals were placed individually in a white plastic enclosure containing a floor consisting of 4 metal plates connected to an electric shock generator (Apelex: type 011346). Each mouse was left to explore freely for 15 seconds. Then, every time it crossed from one plate to another, it received a weak electric shock (2.5 mA, 1.5 s). The number of punished crossings was counted during a 1 minute test. 15 mice were studied per group. The test was performed blind.
Carnosol was evaluated at 3 doses (200, 400, 600 mg/kg), administered p.o. 24 h, 5 h and 1 h before the test, and compared with a vehicle control (corn oil) group.
Clobazam (32 mg/kg p.o.), administered 1 h before the test, was used as reference substance. Mice in this group received additional administrations of vehicle at 24 h and 5 h before the test in order to maintain experimental blinding.

[2] = test system: mouse; experiment: Porsolt's Forced Swim Test (FST); type: in vivo
Method: The Forced Swim Test (FST) was first reported in 1977 for screening of antidepressant-like compounds in rats (Porsolt et al 1977 Nature, 266:730-732) and, later, modified for testing mice (Porsolt et al 1977 Arch. Int. Pharmacodynamie, 229:327-336).
In two separate experiments, mice were tested following either i.p. or p.o. administration of carnosol. Mice were individually placed in a cylinder containing water (22° C.) from which they could not escape. The mice were placed in the water for 6 min and the duration of immobility during the last 4 min was measured. Ten to fifteen mice were studied per group. Carnosol was evaluated at 3, 10, 30 mg/kg body weight (i.p. 30 min before the test) or 200, 400, 600 mg/kg body weight (p.o., 24, 5 and 1 h before the test), and compared with vehicle control groups. Imipramine (32 mg/kg i.p., or p.o., respectively), administered under the same experimental conditions, was used as reference substance. Immobility and swimming time were assessed.

[3] = target: T1, human dopamine transporter (hDAT) (Homo sapiens, UniProt Q01959); experiment: cell-based; settings: transfected CHO-K1 cells, 50 nM [3H]-dopamine; read-out: IC50, inhibition of dopamine reuptake
T1 construct: expressed in transfected cells; host or cells: CHO-K1
T1 sequence (Q01959 whole entry): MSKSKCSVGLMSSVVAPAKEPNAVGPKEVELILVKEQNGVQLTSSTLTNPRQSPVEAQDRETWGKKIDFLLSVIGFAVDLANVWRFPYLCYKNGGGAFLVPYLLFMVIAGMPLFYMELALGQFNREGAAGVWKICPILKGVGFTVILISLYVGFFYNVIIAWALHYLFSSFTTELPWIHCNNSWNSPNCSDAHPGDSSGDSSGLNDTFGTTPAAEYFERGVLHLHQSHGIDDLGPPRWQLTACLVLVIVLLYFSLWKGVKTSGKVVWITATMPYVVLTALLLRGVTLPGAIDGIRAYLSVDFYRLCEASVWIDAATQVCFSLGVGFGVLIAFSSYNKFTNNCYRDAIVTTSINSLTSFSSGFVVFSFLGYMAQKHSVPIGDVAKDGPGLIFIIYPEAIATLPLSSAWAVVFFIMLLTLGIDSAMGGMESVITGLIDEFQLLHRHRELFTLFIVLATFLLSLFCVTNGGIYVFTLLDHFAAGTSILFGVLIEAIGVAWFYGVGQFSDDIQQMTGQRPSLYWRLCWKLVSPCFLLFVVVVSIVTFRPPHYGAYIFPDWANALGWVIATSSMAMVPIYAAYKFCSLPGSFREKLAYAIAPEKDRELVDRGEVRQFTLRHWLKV
Method: Specific signal was determined in the presence of 10 μM nomifensine (dopamine reuptake inhibitor). Cells were then solubilised with 1% SDS lysis buffer.

[4] = target: T2, human noradrenaline transporter (hNAT) (Homo sapiens, UniProt P23975); experiment: Noradrenaline uptake inhibition in MDCK cells expressing hNAT; type: cell-based
T2 construct: expressed in transfected cells; host or cells: MDCK
T2 sequence (P23975 whole entry): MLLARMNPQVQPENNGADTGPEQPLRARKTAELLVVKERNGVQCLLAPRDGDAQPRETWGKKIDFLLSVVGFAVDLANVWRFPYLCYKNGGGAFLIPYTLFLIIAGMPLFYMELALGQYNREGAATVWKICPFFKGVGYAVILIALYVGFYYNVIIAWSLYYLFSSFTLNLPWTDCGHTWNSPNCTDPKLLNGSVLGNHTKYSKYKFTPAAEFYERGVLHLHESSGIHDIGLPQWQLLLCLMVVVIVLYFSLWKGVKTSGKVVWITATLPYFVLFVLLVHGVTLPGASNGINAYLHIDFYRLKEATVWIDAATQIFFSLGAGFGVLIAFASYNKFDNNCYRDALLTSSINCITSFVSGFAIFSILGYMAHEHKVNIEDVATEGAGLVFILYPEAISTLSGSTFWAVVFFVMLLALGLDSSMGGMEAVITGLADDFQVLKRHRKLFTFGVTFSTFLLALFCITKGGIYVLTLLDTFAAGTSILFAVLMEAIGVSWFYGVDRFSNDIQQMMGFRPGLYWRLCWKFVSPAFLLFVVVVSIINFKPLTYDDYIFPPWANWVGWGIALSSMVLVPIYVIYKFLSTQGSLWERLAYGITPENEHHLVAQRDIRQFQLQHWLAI
Method: Madin Darby canine kidney (MDCK) cells, stably expressing the human noradrenaline transporter (hNAT), were plated one day before the assay. […] Cells in each well were then rinsed twice, solubilised with 1% SDS lysis buffer and the lysate was analysed to determine [^3H]-noradrenaline uptake. […] Reduction of [^3H]-noradrenaline uptake by 50 percent or more (≧50%) relative to vehicle controls indicated significant inhibitory activity.

[5] = target: T3, human calcitonin gene-related peptide (hCGRP) receptor (Homo sapiens, UniProt O60894+Q16602); experiment: CGRP receptor radioligand binding assay; settings: 0.03 nM [125I]h-CGRPα, CHO cell membranes, read-out: percentage inhibition of control radioligand specific binding to hCGRP receptor
T3 construct: expressed in transfected cells; host or cells: CHO (membrane homogenates)
T3 sequence (Q16602 23-461): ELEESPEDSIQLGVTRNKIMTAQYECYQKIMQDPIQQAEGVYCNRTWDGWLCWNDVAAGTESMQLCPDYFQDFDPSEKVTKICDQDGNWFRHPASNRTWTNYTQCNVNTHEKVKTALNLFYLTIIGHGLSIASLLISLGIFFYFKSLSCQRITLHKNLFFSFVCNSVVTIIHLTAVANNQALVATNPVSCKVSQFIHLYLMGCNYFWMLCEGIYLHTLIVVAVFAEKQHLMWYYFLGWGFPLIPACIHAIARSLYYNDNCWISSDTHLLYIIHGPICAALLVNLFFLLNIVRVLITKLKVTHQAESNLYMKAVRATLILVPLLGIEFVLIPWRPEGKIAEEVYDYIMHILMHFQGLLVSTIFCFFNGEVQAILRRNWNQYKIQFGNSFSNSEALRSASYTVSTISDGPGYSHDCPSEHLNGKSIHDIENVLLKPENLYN
T3 sequence (O60894 27-148): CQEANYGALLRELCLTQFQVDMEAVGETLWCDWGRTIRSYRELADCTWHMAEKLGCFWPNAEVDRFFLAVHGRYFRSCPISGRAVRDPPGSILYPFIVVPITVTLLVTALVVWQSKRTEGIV
Method: The effect of carnosol on the agonist site of the human calcitonin gene-related peptide (hCGRP) receptor in transfected CHO cells was investigated using a radioligand binding assay adapted from that described by Aiyar et al. (1996, J. Biol. Chem., 271: 11325-11329).
Briefly, cell membrane homogenates (10 μg protein) were incubated for 90 min at 22° C. with 0.03 nM [^125I]h-CGRPα in the absence or presence of carnosol (10 μM) in a buffer containing 50 mM HEPES-NaOH (pH 7.4), 10 mM MgCl2, 4 mM KCl, 10 mM NaCl, 1 mM EDTA, 1 μM phosphoramidon, 0.3% BSA and 0.04% bacitracine. Non-specific binding was determined in the presence of 1 μM h-CGRPα. Following incubation, the samples were filtered rapidly under vacuum through glass fibre filters (GF/B, Packard) pre-soaked with 0.3% polyethyleneimine (PEI) and rinsed several times with ice-cold 50 mM Tris-HCl using a 96-sample cell harvester (Unifilter, Packard). The filters were dried then counted for radioactivity in a scintillation counter (Topcount, Packard) using a scintillation cocktail (Microscint 0, Packard). The results are expressed as percentage inhibition of the control radioligand specific binding. The standard reference compound used was h-CGRPα, the natural agonist of the hCGRP receptor.

CC(C)c1cc2c(c(O)c1O)[C@@]13CCCC(C)(C)[C@@H]1C[C@@H]2OC3=O [Carnosol, carnosol]
Number of punished crossings, mean ([1]; 200 mg/kg p.o. −24 h): 3.5 | Number of punished crossings, mean ([1]; 400 mg/kg p.o. −24 h): 3.7 | Number of punished crossings, mean ([1]; 600 mg/kg p.o. −24 h): 3.1 | Duration of immobility (% change from control) ([2]; 3 mg/kg i.p., −30 min): −26% | Duration of immobility (% change from control) ([2]; 10 mg/kg i.p., −30 min): −21% | Duration of immobility (% change from control) ([2]; 30 mg/kg i.p., −30 min): −18% | Duration of immobility (% change from control) ([2]; 200 mg/kg p.o., −24, −5, −1 h): −9% | Duration of immobility (% change from control) ([2]; 400 mg/kg p.o., −24, −5, −1 h): −53% | Duration of immobility (% change from control) ([2]; 600 mg/kg p.o., −24, −5, −1 h): −3% | IC50 [3]: 10.3 µM | IC50 [4]: 30.6 µM | inhibition at 10 µM [5]: 54%
